Measurements published in patent US11459309B2, “Crystalline forms of a lysyl oxidase-like 2 inhibitor and methods of making” (PHARMAKEA, INC., priority 2016, dated 2022).

Legend:
[1] = Stability studies (accelerated, ICH); assay type: physicochemical
Method: The compounds were assayed according to appearance, purity, related Substances, chiral purity, moisture, DSC, and XRPD

[2] = Storage of solid forms at 40° C./75% RH or 25° C./97% RH; assay type: physicochemical; details: for 7 days storage @ 40° C./75% RH: appearance: table prints 40° C./5% RH, hydrochloride salt
[3] = Form conversion on heating (thermal analysis / XRPD); assay type: physicochemical; details: heated above 150° C.
Method: DSC data were collected on a TA Instruments Q2000 equipped with a 50 position auto-sampler. The calibration for thermal capacity was carried out using sapphire and the calibration for energy and temperature was carried out using certified indium. Typically 0.5-3 mg of each sample, in a pin-holed aluminium pan, was heated at 10° C./min from 25° C. to 300° C. A purge of dry nitrogen at 50 ml/min was maintained over the sample.

[4] = Storage of solid forms at 40° C./75% RH or 25° C./97% RH; assay type: physicochemical; details: for 7 days storage @ 40° C./75% RH: resulting form (XRPD): 7 days / one week, hydrochloride salt
Method: All retrieved solids from the crystallisation attempts were stored at 40° C. and 75% RH.

[5] = Method: After each addition of solvent, the system was shaken gently for 10 minutes at 50° C. and then allowed to stand at room temperature for 5 min before the addition of a new aliquot of solvent. After the assessment was completed, any suspensions obtained were matured and clear solutions were cooled at 5° C.
[6] = Aqueous solubility of Form 1 of Compound 2; assay type: physicochemical
[7] = Organic (qualitative) solubility of Form 1 of Compound 2; assay type: physicochemical
[8] = Gravimetric Vapor Sorption (GVS); assay type: physicochemical; details: 0 to 90% RH; methanesulfonate salt
From the text: Gravimetric Vapor Sorption (GVS) isotherms were obtained using an SMS DVS Intrinsic moisture sorption analyser, controlled by DVS Intrinsic Control software v1.0.1.2 (or v 1.0.1.3), over a range of 0 to 90% relative humidity (RH).

[9] = Solubility and metastable limit curves (clear point / cloud point, Crystal16); assay type: physicochemical
Method: The samples were then cooled from 70 back to −8° C. at the same rate. The clear point upon heating (at 100% transmission) and the cloud point upon re-cooling (<100% transmission) were recorded using the Crystal16 instrument and the data is shown in Table 17. XRPD analysis was performed on all solids obtained post cooling.

[10] = Forced degradation study; assay type: physicochemical

## Cl.NCc1cc(Oc2cccc(C(=O)N3C[C@@H](O)[C@H](F)C3)c2)nc(C(F)(F)F)c1 [Compound 1, (R,R)-trans-(3-((4-(aminomethyl)-6-(trifluoromethyl)pyridin-2-yl)oxy)phenyl)(3-fluoro-4-hydroxypyrrolidin-1-yl)methanone, hydrochloride salt]
[1]; 40° C./75% RH, 3 month
  3 month accelerated stability: no significant changes in purity or absorption of moisture

## CS(=O)(=O)O.NCc1cc(Oc2cccc(C(=O)N3C[C@@H](O)[C@H](F)C3)c2)nc(C(F)(F)F)c1 [Form 2 of Compound 2, (R,R)-trans-(3-((4-(aminomethyl)-6-(trifluoromethyl)pyridin-2-yl)oxy)phenyl)(3-fluoro-4-hydroxypyrrolidin-1-yl)methanone, methanesulfonate salt]
[2]; 7 days at 25° C./97% RH
  form change after storage: change also occurs
[3]
  form change on heating: can transform to Form 1
[4]; after GVS analysis and 7 days at 40° C./75% RH
  form change after GVS analysis and storage: phase transformation towards Form 1
[4]; humidity
  form change in humidity: converts to Form 1

## Cl.NCc1cc(Oc2cccc(C(=O)N3C[C@@H](O)[C@H](F)C3)c2)nc(C(F)(F)F)c1 [Amorphous Compound 1, (R,R)-trans-(3-((4-(aminomethyl)-6-(trifluoromethyl)pyridin-2-yl)oxy)phenyl)(3-fluoro-4-hydroxypyrrolidin-1-yl)methanone, hydrochloride salt]
[2]
  7 days storage @ 40° C./75% RH: appearance: Glassy
[5]
  Solubility: 200-100

## CS(=O)(=O)O.NCc1cc(Oc2cccc(C(=O)N3C[C@@H](O)[C@H](F)C3)c2)nc(C(F)(F)F)c1 [Form 1 of Compound 2, (R,R)-trans-(3-((4-(aminomethyl)-6-(trifluoromethyl)pyridin-2-yl)oxy)phenyl)(3-fluoro-4-hydroxypyrrolidin-1-yl)methanone, methanesulfonate salt]
[6]; pH 2
  Aqueous Solubility: >107 mg/mL
[6]; pH 7.4
  Aqueous Solubility: >107 mg/mL
[6]; pH 10
  Aqueous Solubility: >85 mg/mL
[7]; isopropyl acetate, isopropanol, methyl-ethyl ketone, acetone, ethanol, methyl-t-butyl ether, 1,4 dioxane, toluene, tetrahydrofuran, dichloromethane, acetonitrile
  Organic Solubility: Qualitative Solubility: ≤10 mg/mL
[7]; water, dimethyl sulfoxide
  Organic Solubility: Qualitative Solubility: >200 mg/mL
[4]; 7 days at 40° C./75% RH and 25° C./97% RH
  Polymorph stability on storage: stable for 7 days
[8]
  XRPD after the GVS analysis: Unchanged

## Cl.NCc1cc(Oc2cccc(C(=O)N3C[C@@H](O)[C@H](F)C3)c2)nc(C(F)(F)F)c1 [Form 2 of Compound 1, (R,R)-trans-(3-((4-(aminomethyl)-6-(trifluoromethyl)pyridin-2-yl)oxy)phenyl)(3-fluoro-4-hydroxypyrrolidin-1-yl)methanone, hydrochloride salt]
[2]
  7 days storage @ 40° C./75% RH: appearance: Waxy/glassy
[4]; 1 week, 40° C. and 75% RH
  behaviour on storage conditions: remained unchanged
[4]
  7 days storage @ 40° C./75% RH: resulting form (XRPD): Form 2
[4]; thermally stable, over time
  stability over time: converts over time to a waxy solid

## Cl.NCc1cc(Oc2cccc(C(=O)N3C[C@@H](O)[C@H](F)C3)c2)nc(C(F)(F)F)c1 [Form 1 of Compound 1, (R,R)-trans-(3-((4-(aminomethyl)-6-(trifluoromethyl)pyridin-2-yl)oxy)phenyl)(3-fluoro-4-hydroxypyrrolidin-1-yl)methanone, hydrochloride salt]
[2]
  7 days storage @ 40° C./75% RH: appearance: Waxy/glassy
[4]
  hygroscopicity: hygroscopic solid
  7 days storage @ 40° C./75% RH: resulting form (XRPD): transforms to Form 2
[4]; after 24 hours
  behaviour on storage at 40° C. and 75% RH: deliquescing

## CS(=O)(=O)O.NCc1cc(Oc2cccc(C(=O)N3C[C@@H](O)[C@H](F)C3)c2)nc(C(F)(F)F)c1 [Compound 2, (R,R)-trans-(3-((4-(aminomethyl)-6-(trifluoromethyl)pyridin-2-yl)oxy)phenyl)(3-fluoro-4-hydroxypyrrolidin-1-yl)methanone, methanesulfonate salt]
[1]; long-term (25° C./60%) and accelerated (40° C./75%) conditions of 1-year and 2-year ICH studies
  ICH stability, 1 month data: within limits for all attributes tested
[9]; 5 mg in 1 mL IPA:water 95:5
  Clear Point Temperature: 6.9 °C
[9]; 10 mg in 1 mL IPA:water 95:5
  Clear Point Temperature: 20.3 °C
[9]; 20 mg in 1 mL IPA:water 95:5
  Clear Point Temperature: 37.2 °C
[9]; 30 mg in 1 mL IPA:water 95:5
  Clear Point Temperature: 48.5 °C
  Cloud Point Temperature: −7.8 °C
[9]; 40 mg in 1 mL IPA:water 95:5
  Clear Point Temperature: 55.8 °C
  Cloud Point Temperature: −1.8 °C
[9]; 60 mg in 1 mL IPA:water 95:5
  Clear Point Temperature: 64 °C
  Cloud Point Temperature: 14.5 °C
[9]; 70 mg in 1 mL IPA:water 95:5
  Clear Point Temperature: 68.6 °C
  Cloud Point Temperature: 24.7 °C
[10]; solid, 100° C., 24 hours
  forced degradation, solid state, heat: stable
[10]; solid, max 365 nm, 24 hours
  forced degradation, solid state, light: stable
[10]; solution, 50° C. for 24 hours
  forced degradation, solution state, heat: stable
